Paper PMC6128854 (Scientific Reports, 2018)
Positions of bridges follow the written chain, without caps; N, C: chain ends. Non-standard residues stand in square brackets, D forms with d. Residues, ends and D or L forms follow the SMILES beside them. Hyp = O=C(O)[C@@H]1C[C@@H](O)CN1

Target: hCav2.2 (Homo sapiens, UniProt Q00975)
Experiment: cell-based
Conditions: SEM

Chain of hCav2.2 (Q00975 whole entry, looked up): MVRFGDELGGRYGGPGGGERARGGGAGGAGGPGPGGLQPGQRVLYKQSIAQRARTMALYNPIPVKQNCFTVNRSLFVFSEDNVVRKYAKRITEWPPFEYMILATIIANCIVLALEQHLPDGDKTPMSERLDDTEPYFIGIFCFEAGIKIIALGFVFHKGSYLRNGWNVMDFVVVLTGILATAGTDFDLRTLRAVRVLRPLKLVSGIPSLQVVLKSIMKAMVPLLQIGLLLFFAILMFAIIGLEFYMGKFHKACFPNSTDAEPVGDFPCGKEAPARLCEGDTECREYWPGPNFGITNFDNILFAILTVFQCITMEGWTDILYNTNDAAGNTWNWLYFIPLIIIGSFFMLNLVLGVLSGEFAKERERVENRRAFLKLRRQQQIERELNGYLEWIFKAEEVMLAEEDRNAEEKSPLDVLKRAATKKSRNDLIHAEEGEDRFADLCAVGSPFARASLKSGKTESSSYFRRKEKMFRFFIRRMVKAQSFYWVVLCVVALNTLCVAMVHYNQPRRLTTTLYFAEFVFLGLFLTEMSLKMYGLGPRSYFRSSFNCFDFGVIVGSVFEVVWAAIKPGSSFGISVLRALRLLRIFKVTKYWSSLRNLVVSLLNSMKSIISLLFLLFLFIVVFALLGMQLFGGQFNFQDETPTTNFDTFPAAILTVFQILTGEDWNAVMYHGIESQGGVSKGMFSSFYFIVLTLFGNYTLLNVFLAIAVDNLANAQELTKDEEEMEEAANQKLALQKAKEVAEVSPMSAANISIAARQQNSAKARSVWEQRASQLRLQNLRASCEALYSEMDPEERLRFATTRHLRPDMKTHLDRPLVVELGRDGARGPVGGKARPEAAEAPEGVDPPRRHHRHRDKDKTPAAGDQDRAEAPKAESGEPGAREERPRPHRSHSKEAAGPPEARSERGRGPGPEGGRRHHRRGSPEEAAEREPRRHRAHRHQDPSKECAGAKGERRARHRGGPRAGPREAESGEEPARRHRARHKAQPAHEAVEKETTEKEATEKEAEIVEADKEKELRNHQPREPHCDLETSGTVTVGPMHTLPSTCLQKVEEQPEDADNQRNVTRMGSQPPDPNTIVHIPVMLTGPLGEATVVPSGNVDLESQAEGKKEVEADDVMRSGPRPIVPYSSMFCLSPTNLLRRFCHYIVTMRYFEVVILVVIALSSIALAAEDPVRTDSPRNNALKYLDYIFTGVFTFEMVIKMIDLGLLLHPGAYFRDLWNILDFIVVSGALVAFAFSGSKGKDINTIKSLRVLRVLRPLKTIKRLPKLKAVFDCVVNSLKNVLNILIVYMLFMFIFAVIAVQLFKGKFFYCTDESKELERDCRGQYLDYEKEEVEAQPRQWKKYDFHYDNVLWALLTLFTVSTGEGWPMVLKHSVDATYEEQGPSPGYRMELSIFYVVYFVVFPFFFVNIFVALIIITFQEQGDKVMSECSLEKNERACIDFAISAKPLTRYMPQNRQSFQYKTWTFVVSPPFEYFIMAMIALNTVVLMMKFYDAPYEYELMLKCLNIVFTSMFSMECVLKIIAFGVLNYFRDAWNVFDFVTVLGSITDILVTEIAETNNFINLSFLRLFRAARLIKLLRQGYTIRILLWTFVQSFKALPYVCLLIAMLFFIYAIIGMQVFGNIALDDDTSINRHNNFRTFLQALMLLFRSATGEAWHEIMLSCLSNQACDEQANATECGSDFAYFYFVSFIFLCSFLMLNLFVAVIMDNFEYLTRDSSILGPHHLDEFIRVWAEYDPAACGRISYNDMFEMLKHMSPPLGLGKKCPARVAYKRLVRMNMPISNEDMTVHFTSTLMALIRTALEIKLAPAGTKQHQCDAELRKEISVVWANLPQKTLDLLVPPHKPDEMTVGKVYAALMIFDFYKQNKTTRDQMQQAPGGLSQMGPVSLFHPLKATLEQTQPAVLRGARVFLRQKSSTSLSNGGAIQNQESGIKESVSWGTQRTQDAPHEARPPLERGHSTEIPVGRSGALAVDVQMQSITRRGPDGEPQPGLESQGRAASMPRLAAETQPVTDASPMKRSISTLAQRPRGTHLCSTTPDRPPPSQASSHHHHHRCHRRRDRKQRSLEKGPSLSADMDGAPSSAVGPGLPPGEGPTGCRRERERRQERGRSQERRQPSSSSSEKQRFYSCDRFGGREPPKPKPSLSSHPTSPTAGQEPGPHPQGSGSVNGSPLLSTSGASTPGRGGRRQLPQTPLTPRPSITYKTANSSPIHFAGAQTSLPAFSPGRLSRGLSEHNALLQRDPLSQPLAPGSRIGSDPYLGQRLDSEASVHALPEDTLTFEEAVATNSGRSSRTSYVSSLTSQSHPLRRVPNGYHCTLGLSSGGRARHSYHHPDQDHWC

CC[C@H](C)[C@@H]1NC(=O)[C@@H]2CSSC[C@@H]3NC(=O)[C@H](CCCCN)NC(=O)[C@H](CO)NC(=O)CNC(=O)[C@@H]4C[C@@H](O)CN4C(=O)[C@@H]4CCCN4C(=O)[C@H](CCCCN)NC(=O)[C@@H](N)CSSC[C@H](NC(=O)[C@H](CSSC[C@@H](C(=O)N[C@@H](CCCNC(=N)N)C(=O)N[C@@H](CCCCN)C(=O)N[C@@H](Cc4ccc(O)cc4)C(=O)N[C@@H](Cc4ccc(O)cc4)C(=O)O)NC(=O)[C@H](CCCNC(=N)N)NC(=O)[C@H](CCCCN)NC(=O)[C@H]([C@@H](C)O)NC(=O)[C@H](Cc4ccc(O)cc4)NC(=O)[C@H](CO)NC1=O)NC(=O)[C@H](CC(=O)O)NC(=O)[C@H](Cc1ccc(O)cc1)NC(=O)[C@H](CCSC)NC(=O)[C@H](CO)NC(=O)[C@@H]1C[C@@H](O)CN1C(=O)[C@H](CO)NC3=O)C(=O)N[C@@H]([C@@H](C)O)C(=O)N[C@@H]([C@@H](C)O)C(=O)N2 [MoVIB-[R13Y]] (H-CKP[Hyp]GSKCS[Hyp]SMYDCCTTCISYTKRCRKYY-OH; disulfide 1-16, 8-19, 15-26)
IC50: 3.47 ± 0.55 µM
